This note sets out measurements from patent publication US8518954B2, “Inhibitors of folic acid-dependent enzymes” (priority 2005, dated 2013).

One experiment concerns carcinoma W256. Briefly: Walker-256 rat tumor model. The class given is in vivo. Here is the method:
Compounds of formula I were also active in vivo against the carcinoma W256 (TGI=28%), most likely due to the higher solubility and thus passive transport into the tumor compared with other anti-folate agents. Median survival times for saline-treated control animals and animals receiving Compound 4 (1 mg/kg) intraperitoneally in the Walker-256 rat tumor model were 22.5 and >46.3 days, respectively.

A further experiment deals with L 1210 cells. The experiment in a line: Tumor inhibition in mice, subcutaneous L1210 cells. The class given is in vivo. The note with it: DBA/2 mice, L1210 s.c.; 0.5 mg/kg; saline control 6.7 days. Here is the method:
The ability of compounds of formula I to inhibit tumor growth in mice was tested as follows. 5×10^6 L 1210 cells were injected subcutaneously in the axillary region of DBA/2 mice (groups of 8 mice/treatment). Following intraperitoneal administration of saline solution only or saline solution containing a compound of formula I the length and width of the control tumor (receiving only saline) was measured at the indicated time and compared to those of animals receiving test compound to calculate the percentage of inhibition. Intraperitoneal administration of a saline solution containing the test compound, daily for 6 days, led to 60% tumor-free long term survivors (tumor weight zero). Median survival times for saline-treated control animals and animals receiving Compound 4 (0.5 mg/kg) were 6.7 and 15.6 days, respectively. Oral administration of the compound required a higher dosage of the inhibitor and led to a less-marked, but still significant reduction of the tumor weight and 25% long-term survivors as compared with the saline-treated control group.

Experiment [1] concerns dihydrofolate reductase (DHFR). The note with it: one representative experiment out of 5; 37° C., pH 7.0, 20 μM dihydrofolate, 100 μM NADPH.
The mark [2] stands for this setting: 0.25 mg/kg - 3 doses every 4 days.
The mark [3] stands for this setting: 0.5 mg/kg - 3 doses every 4 days.

Take “N-[4-[[2,4-diamino-6-pteridinyl)methyl]amino]benzoyl]pseudoglutamic acid [Compound 4]”: the “No. animals surviving at day 30 days post-transplant” value in the experiment on carcinoma W256 (0.1 mg/kg - 5 doses every day) is reported as 10/10; in the experiment with carcinoma W256 (setting [2]), 8/10; with carcinoma W256 (setting [3]), 9/10; in the experiment with carcinoma W256 (1 mg/kg - one dose) it was 8/10. For the same substance, the “Tumor volume (cm^3) ± SE” value in the experiment with carcinoma W256 (0.1 mg/kg - 5 doses every day) was found to be 14.5 ± 3.8 cm^3; in the experiment with carcinoma W256 (setting [2]) it was 23 ± 3.5 cm^3; in the experiment on carcinoma W256 (setting [3]), 13.4 ± 3.07 cm^3; in the experiment on carcinoma W256 (1 mg/kg - one dose), 17.1 ± 3.3 cm^3. Further, the Median survival time is recorded as greater than 46.3 days in the experiment with carcinoma W256 (Walker-256 rat tumor model, 1 mg/kg intraperitoneally, saline control 22.5 days) and 15.6 days in the experiment with L 1210 cells. Moreover, the “Relative IC50 (IC50(Compound)/IC50(MTX))” value in experiment [1] was 0.75.
